≈ marks a conversion by molar mass, not a printed value.
How the values were obtained:
Format in all cases: functional
Enterococcus faecalis = assay: Inhibitory activity against Enterococcus faecalis UC9217
Moraxella catarrhalis = assay: Inhibitory activity against Moraxella catarrhalis UC30610
Haemophilus influenzae = assay: Inhibitory activity against Haemophilus influenzae UC30063
Streptococcus pneumoniae = assay: Inhibitory activity against Streptococcus pneumoniae UC9912
Staphylococcus aureus [1] = assay: Inhibitory activity against Methicillin-susceptible Staphylococcus aureus UC9213
[2] = tested on: Staphylococcus epidermidis; assay: Inhibitory activity against Methicillin-resistant Staphylococcus epidermidis UC12084
Staphylococcus aureus [3] = assay: Inhibitory activity against Methicillin-resistant Staphylococcus aureus UC6685

| SMILES | MIC (Enterococcus faecalis) | MIC (Moraxella catarrhalis) | MIC (Haemophilus influenzae) | MIC (Streptococcus pneumoniae) | MIC (Staphylococcus aureus [1]) | MIC [2] | MIC (Staphylococcus aureus [3]) |
| --- | --- | --- | --- | --- | --- | --- | --- |
| CC(=O)NC[C@H]1CN(c2ccc(-n3cnc(C=O)n3)c(F)c2)C(=O)O1 | 4 µg/mL (≈ 11.5 µM) | 8 µg/mL (≈ 23 µM) | 8 µg/mL (≈ 23 µM) | 0.5 µg/mL (≈ 1.44 µM) | 4 µg/mL (≈ 11.5 µM) | 0.5 µg/mL (≈ 1.44 µM) | 2 µg/mL (≈ 5.76 µM) |
| CC(=O)NC[C@H]1CN(c2ccc(-n3cnc(C)n3)c(F)c2)C(=O)O1 | 8 µg/mL (≈ 24 µM) | 16 µg/mL (≈ 48 µM) | > 16 µg/mL | 1 µg/mL (≈ 3 µM) | 8 µg/mL (≈ 24 µM) | 2 µg/mL (≈ 6 µM) | 4 µg/mL (≈ 12 µM) |
| CC(=O)NC[C@H]1CN(c2ccc(-n3ccc(NC(C)=O)n3)c(F)c2)C(=O)O1 | 4 µg/mL (≈ 10.7 µM) | > 16 µg/mL | > 16 µg/mL | 0.5 µg/mL (≈ 1.33 µM) | 8 µg/mL (≈ 21.3 µM) | 2 µg/mL (≈ 5.33 µM) | 8 µg/mL (≈ 21.3 µM) |
| CC(=O)NC[C@H]1CN(c2ccc(-n3nccn3)c(F)c2)C(=O)O1 | 4 µg/mL (≈ 12.5 µM) | > 16 µg/mL | > 16 µg/mL | 1 µg/mL (≈ 3.13 µM) | 4 µg/mL (≈ 12.5 µM) | 1 µg/mL (≈ 3.13 µM) | 2 µg/mL (≈ 6.26 µM) |
| CNC(=O)c1cn(-c2ccc(N3C[C@H](CNC(C)=O)OC3=O)cc2F)nn1 | 8 µg/mL (≈ 21.3 µM) | > 16 µg/mL | > 16 µg/mL | 1 µg/mL (≈ 2.66 µM) | 8 µg/mL (≈ 21.3 µM) | 2 µg/mL (≈ 5.31 µM) | 4 µg/mL (≈ 10.6 µM) |
| CCOC(=O)CCc1ccn(-c2ccc(N3C[C@H](CNC(C)=O)OC3=O)cc2F)c1 | 2 µg/mL (≈ 4.79 µM) | 2 µg/mL (≈ 4.79 µM) | > 16 µg/mL | 0.5 µg/mL (≈ 1.2 µM) | 4 µg/mL (≈ 9.58 µM) | 1 µg/mL (≈ 2.4 µM) | 4 µg/mL (≈ 9.58 µM) |
| CC(=O)NC[C@H]1CN(c2ccc(-n3ccc(OC(C)=O)n3)c(F)c2)C(=O)O1 | 8 µg/mL (≈ 21.3 µM) | 8 µg/mL (≈ 21.3 µM) | 16 µg/mL (≈ 42.5 µM) | 1 µg/mL (≈ 2.66 µM) | 8 µg/mL (≈ 21.3 µM) | 1 µg/mL (≈ 2.66 µM) | 8 µg/mL (≈ 21.3 µM) |
| COc1ccn(-c2ccc(N3C[C@H](CNC(C)=O)OC3=O)cc2F)n1 | 16 µg/mL (≈ 45.9 µM) | 16 µg/mL (≈ 45.9 µM) | 16 µg/mL (≈ 45.9 µM) | 2 µg/mL (≈ 5.74 µM) | 8 µg/mL (≈ 23 µM) | 2 µg/mL (≈ 5.74 µM) | 8 µg/mL (≈ 23 µM) |
| CC(=O)NC[C@H]1CN(c2ccc(-n3ccc(C(C)O)c3)c(F)c2)C(=O)O1 (stereo partly drawn) | 8 µg/mL (≈ 22.1 µM) | > 16 µg/mL | > 16 µg/mL | 2 µg/mL (≈ 5.53 µM) | 16 µg/mL (≈ 44.3 µM) | 4 µg/mL (≈ 11.1 µM) | 16 µg/mL (≈ 44.3 µM) |
| CO/N=C(/C)c1ccn(-c2ccc(N3C[C@H](CNC(C)=O)OC3=O)cc2F)c1 | 2 µg/mL (≈ 5.15 µM) | 8 µg/mL (≈ 20.6 µM) | > 16 µg/mL | 0.5 µg/mL (≈ 1.29 µM) | 4 µg/mL (≈ 10.3 µM) | 1 µg/mL (≈ 2.57 µM) | 2 µg/mL (≈ 5.15 µM) |
| CC(=O)NC[C@H]1CN(c2ccc(-n3cc(I)cn3)c(F)c2)C(=O)O1 | 2 µg/mL (≈ 4.5 µM) | 8 µg/mL (≈ 18 µM) | > 16 µg/mL | 0.5 µg/mL (≈ 1.13 µM) | 2 µg/mL (≈ 4.5 µM) | 1 µg/mL (≈ 2.25 µM) | 2 µg/mL (≈ 4.5 µM) |
| CC(=O)NC[C@H]1CN(c2ccc(-n3cnc(CO)n3)c(F)c2)C(=O)O1 | 16 µg/mL (≈ 45.8 µM) | 8 µg/mL (≈ 22.9 µM) | 16 µg/mL (≈ 45.8 µM) | 1 µg/mL (≈ 2.86 µM) | 16 µg/mL (≈ 45.8 µM) | 2 µg/mL (≈ 5.73 µM) | 16 µg/mL (≈ 45.8 µM) |
| CC(=O)NC[C@H]1CN(c2ccc(-n3cnc(NC(=O)Cc4ccccc4)n3)c(F)c2)C(=O)O1 | > 16 µg/mL | > 16 µg/mL | > 16 µg/mL | 2 µg/mL (≈ 4.42 µM) | > 16 µg/mL | > 16 µg/mL |  |
| CC(=O)NC[C@H]1CN(c2ccc(-n3cnc(N)n3)c(F)c2)C(=O)O1 | 16 µg/mL (≈ 47.9 µM) | 16 µg/mL (≈ 47.9 µM) | > 16 µg/mL | 1 µg/mL (≈ 2.99 µM) | 8 µg/mL (≈ 23.9 µM) | 2 µg/mL (≈ 5.98 µM) | 4 µg/mL (≈ 12 µM) |
| CC(=O)NC[C@H]1CN(c2ccc(-n3cc(C(N)=O)nn3)c(F)c2)C(=O)O1 | 8 µg/mL (≈ 22.1 µM) | 8 µg/mL (≈ 22.1 µM) | > 16 µg/mL | 0.5 µg/mL (≈ 1.38 µM) | 4 µg/mL (≈ 11 µM) | 1 µg/mL (≈ 2.76 µM) | 4 µg/mL (≈ 11 µM) |
| CC(=O)NC[C@H]1CN(c2ccc(-n3ccc(N)n3)c(F)c2)C(=O)O1 | 4 µg/mL (≈ 12 µM) | 16 µg/mL (≈ 48 µM) | 16 µg/mL (≈ 48 µM) | 0.5 µg/mL (≈ 1.5 µM) | 2 µg/mL (≈ 6 µM) | 1 µg/mL (≈ 3 µM) | 4 µg/mL (≈ 12 µM) |
| CC(=O)NC[C@H]1CN(c2ccc(-n3cnc(C#N)n3)c(F)c2)C(=O)O1 | 4 µg/mL (≈ 11.6 µM) | 16 µg/mL (≈ 46.5 µM) | 16 µg/mL (≈ 46.5 µM) | 1 µg/mL (≈ 2.9 µM) | 4 µg/mL (≈ 11.6 µM) | 2 µg/mL (≈ 5.81 µM) | 2 µg/mL (≈ 5.81 µM) |
| COC(=O)c1ncn(-c2ccc(N3C[C@H](CNC(C)=O)OC3=O)cc2F)n1 | > 16 µg/mL | > 16 µg/mL | > 16 µg/mL | 4 µg/mL (≈ 10.6 µM) | > 16 µg/mL | 4 µg/mL (≈ 10.6 µM) |  |
| CC(=O)NC[C@H]1CN(c2ccc(-n3cnc(C#N)c3)c(F)c2)C(=O)O1 | 2 µg/mL (≈ 5.83 µM) | 4 µg/mL (≈ 11.7 µM) | 8 µg/mL (≈ 23.3 µM) | 0.25 µg/mL (≈ 0.728 µM) | 4 µg/mL (≈ 11.7 µM) | 0.5 µg/mL (≈ 1.46 µM) | 4 µg/mL (≈ 11.7 µM) |
| CC(=O)NC[C@H]1CN(c2ccc(-n3ccc(C(F)(F)F)n3)c(F)c2)C(=O)O1 | 8 µg/mL (≈ 20.7 µM) | > 16 µg/mL | > 16 µg/mL | 1 µg/mL (≈ 2.59 µM) | 4 µg/mL (≈ 10.4 µM) | 2 µg/mL (≈ 5.18 µM) | 4 µg/mL (≈ 10.4 µM) |

From ChEMBL document CHEMBL1132968, “Substituent effects on the antibacterial activity of nitrogen-carbon-linked (azolylphenyl)oxazolidinones with expanded activity against the fastidious gram-negative organisms Haemophilus influenzae and Moraxella catarrhalis” (2000)
